Values of other authors in patent US4377591A, “7-Oxo-1-azabicyclo[3.2.0]hept-2-ene-2-carboxylic acid derivatives, their use and preparation” (Sankyo Company, Limited, priority 1980, dated 1983).

Test system: bacteria
Conditions: Japanese Patent Application Kokai No. 73191/76

**Q.** For `C[C@@H](O)[C@H]1C(=O)N2C(C(=O)O)=C(SCCN)C[C@H]12` [thienamycin, (5R,6S)-3-(2-aminoethylthio)-6-[1-(R)-hydroxyethyl]-7-oxo-1-azabicyclo[3.2.0]hept-2-ene-2-carboxylic acid], which “antibacterial activity (in words)” value is on record?
**A.** extraordinarily potent antibacterial activity
